Source: patent US10328114B2, “Lung injury repair compositions and methods” (University of Iowa Research Foundation, priority 2015, dated 2019)
“Also recorded” adds a separate entry of the source. *: point of attachment. Myristoyl = CCCCCCCCCCCCCC(=O)*

Columns and labels:
integrin β4^+ DLEP cells = experiment: Isolated integrin β4+ DLEP cell colony proliferation in matrigel; type: cell-based, mouse; settings: for number of β4+ colonies: PKCζi 520 nM, two weeks, media with 20% BALF from bleomycin injured mice, vs PBS and DMSO
Text: (§1) (8) PKC-ζi promotes proliferation of distal lung epithelial progenitor cells. Recently Chapman et al reported that integrin α6β4 identifies a population of lung cells with regenerative potential in mice (Chapman et al. (2011). “Integrin alpha6beta4 identifies an adult distal lung epithelial population with regenerative potential in mice.” J Clin Invest 121(7): 2855-2862). Furthermore, Li et al, reported same population in human lungs (Li et al. (2013). “Integrin alpha6beta4 identifies human distal lung epithelial progenitor cells with potential as a cell-based therapy for cystic fibrosis lung disease.” PLoS One 8(12): e83624). Therefore, the inventors set out to examine by immunofluorescence the presence of these cells in mouse lungs at 3 and 6 weeks after bleomycin treatment. […] In addition, the inventors isolated mouse α6β4 cells and treated them for 2 weeks with PKC-ζi ([…]).
Integrin β4^+ cells were isolated using flow cytometry and were seeded in matrigel as previously described with modifications (23). Cells were grown for two weeks in the presence of PBS, DMSO (1:1000) or PKCζi (1:1000, 520 nM final concentration PKC). In order to recreate the microenvironment, the media was supplemented with 20% BALF from bleomycin treated mice from week 1 similar to previously described (4).
To test the hypothesis that PKCζ can promote proliferation of β4^+ DLEP cells, integrin β4^+ cells were isolated and the media was supplemented with BALF from bleomycin treated mice from week 1 in the presence of PBS, DMSO or […], in order to recreate the microenvironment in a similar approach as Vaughan and colleagues (4). […] As shown in FIGS. 5 C & D, PKCζi increased proliferation of DLEP integrin β4^+ cells in vitro compared to control.

mouse DLEP α6β4^+ cells = experiment: Isolated DLEP α6β4+ cell colony assay (Example 3); type: cell-based; settings: PKCζi 10 μM, 2 weeks, 20% BALF from week 1 bleomycin injured mice
Protocol: Isolated mouse DLEP α6β4^+ cells in the presence of 20% of BALF from week 1 mice injured with bleomycin were treated with PKCζi (10 μM) for 2 weeks. At week 3 the colonies derived from cre-GFP (lox-tm-TR/GFP) for surfactant protein C (SPC)/Tomato red with hydroxy-tamoxifen were exposed in order to trace the differentiation of β4^+ colonies into SPC^+ cells.

DLEP integrin β4^+ cells = experiment: DLEP integrin β4+ cells in mouse lungs by immunofluorescence after bleomycin injury; type: in vivo
Text: as §1
(§2) Animal protocols were approved by the Institutional Animal Care and Use Committee at the University of Iowa. C57BL/6 mice (Jackson Laboratories, Bar Harbor, Me.) were anesthetized followed by intratracheal instillation of: (A) Control (Ctrl): 1 μl of DMSO (Sigma, St. Louis, Mo.) plus 49 μl of PBS; (B) Bleomycin (Bleo): 1 μl of DMSO plus 49 μl of bleomycin (APP pharmaceuticals, LLC Schaumburg, Ill.) dissolved in PBS (4 U/kg); (C) Bleomycin/PKCζi (Bleo/PKCζi): 1 μg of PKCζi (Calbiochem EMD Biosciences, San Diego, Calif.) solubilized in 1 μl of DMSO plus 49 μl of bleomycin (4 U/Kg) dissolved in PBS (Calbiochem EMD Biosciences, San Diego, Calif.). After this treatment, all mice were instilled (50 μl) every 72 hours with 1 μl of DMSO plus 49 μl of PBS in the Ctrl and Bleo group or with 1 μg of PKCζi dissolved in 1 μl of DMSO plus 49 μl of PBS in the Bleo/PKCζi group for the duration of the experiment. Mice were treated for up to 6 weeks (FIG. 1A). All conditions had between 4 to 6 animals.
(§3) After dissection, immunofluorescence labeling was performed on frozen mouse lung tissue sections with polyclonal anti p-PKCζ (Santa Cruz Biotechnology, Dallas, Tex.) or monoclonal β4 antibody (Clone 346-11a, BD Biosciences, San Jose, Calif.) (23). In addition, Terminal deoxynucleotidyltransferase dUTP nick end labeling (TUNEL) staining was performed on week 1 mouse lung tissue sections (24).

[1] = system: bleomycin induced lung inflammation; experiment: Lung inflammation and cell death in bleomycin ALI model (BALF cell and neutrophil count, IL-1β, TUNEL); type: in vivo, mouse
Protocol: as §2, §3
Bronchoalveolar lavage was performed as previously described (18). Total cell count was examined by hemocytometer and the percent of neutrophils cells in the bronchoalveolar lavage fluid (BALF) by cytospin slides stained with Wright's-Giemsa. Total protein concentration was measured by Bradford assay (Bio-Rad, Hercules, Calif.).
Mouse IL-1β and active transforming growth factor beta (TGFβ) were measured using an ELISA from R&D Biosystems (Minneapolis, Minn.).

## N-Myristoyl-Ser-Ile-Tyr-Arg-Arg-Gly-Ala-Arg-Arg-Trp-Arg-Lys-Leu-OH (Myristoyl-SIYRRGARRWRKL-OH; SMILES CCCCCCCCCCCCCC(=O)N[C@@H](CO)C(=O)N[C@H](C(=O)N[C@@H](Cc1ccc(O)cc1)C(=O)N[C@@H](CCCNC(=N)N)C(=O)N[C@@H](CCCNC(=N)N)C(=O)NCC(=O)N[C@@H](C)C(=O)N[C@@H](CCCNC(=N)N)C(=O)N[C@@H](CCCNC(=N)N)C(=O)N[C@@H](Cc1c[nH]c2ccccc12)C(=O)N[C@@H](CCCNC(=N)N)C(=O)N[C@@H](CCCCN)C(=O)N[C@@H](CC(C)C)C(=O)O)[C@@H](C)CC) [PKCζi]
Integrin β4^+ DLEP cells; Example 1, treated for 2 weeks, concentration not given, vs DMSO
  number of isolated mouse α6β4 cells: increased the number of α6β4 cells compared to DMSO treated cells
Integrin β4^+ DLEP cells
  number of β4+ colonies: increased number of large colonies compared to either DMSO or the PBS group
Integrin β4^+ DLEP cells; listed as PKC-ζi
  number of β4+ colonies: increased the number of β4^+ colonies compared to PBS and DMSO at week 2
Mouse DLEP α6β4^+ cells
  number of α6β4+ colonies: increased the number of α6β4^+ colonies compared to control; also recorded: promotes proliferation DLEP α6β4^+ cells in vitro
DLEP integrin β4^+ cells; week 3 after bleomycin
  number of lung DLEP integrin β4+ (α6β4) cells: an increase in DLEP integrin β4^+ cells in the PKCζi treated mice at week 3
DLEP integrin β4^+ cells; week 3 after bleomycin, listed as PKC-ζi
  number of lung DLEP integrin β4+ (α6β4) cells: an increase trend in α6β44 in the PKC-ζi treated mice
DLEP integrin β4^+ cells; week 6 after bleomycin
  number of lung DLEP integrin β4+ (α6β4) cells: became statistically significant at week 6; also recorded: increased number of lung DLEP integrin β4^+ cells compared to bleomycin group at week 6
DLEP integrin β4^+ cells; week 6 after bleomycin, listed as PKC-ζi
  number of lung DLEP integrin β4+ (α6β4) cells: became significant at 6 weeks
[1]; Example 1
  bleomycin induced inflammatory response: did not prevent increase in inflammatory response
[1]; week 1 lung sections
  apoptotic cells by TUNEL+ staining: did not prevent the increase in apoptotic cells by TUNEL^+ staining
[1]; week 1 post injury
  BALF cell count: neither prevented the increase in BALF cell and neutrophil count
  BALF neutrophil concentration / count: neither prevented the increase in BALF cell and neutrophil count; also recorded: does not decrease bleomycin induced increase in the BALF neutrophil concentration
  IL-1β in BALF: nor prevented the increase in IL-1β concentration; also recorded: does not decrease IL-1β release into BALF
